According to ChEMBL document CHEMBL4715699, “Design, synthesis and biological evaluation of 1,3,6-trisubstituted β-carboline derivatives for cytotoxic and anti-leishmanial potential” (Bioorg Med Chem Lett, 2016):
Activity calls are given as the source filed them. No cut-off for these calls is given here.

Tests used:
Leishmania donovani = experiment: Antileishmanial activity against Leishmania donovani MHOM/80/IN/Dd8 promastigotes infected in THP-1 cells assessed as measured after 48 hrs by MTT assay; type: functional, organism-based
THP-1 = experiment: Cytotoxicity against differentiated human THP-1 cells measured after 48 hrs by MTT assay; type: cell-based; details: THP-1, 48 h
[1] = Selectivity index, ratio of IC50 for differentiated human THP-1 cells to IC50 for Leishmania donovani MHOM/80/IN/Dd8 promastigotes; type: toxicity; details: differentiated THP-1 cells, read-out: Ratio IC50
[2] = Solubility of the compound in 20% DMSO; type: physicochemical
HeLa = experiment: Cytotoxicity against human HeLa cells assessed as reduction in cell viability at 10 uM measured after 24 hrs by MTT assay relative to control; type: functional, cell-based
A549 [3] = experiment: Cytotoxicity against human A-549 cells assessed as reduction in cell viability at 10 uM measured after 24 hrs by MTT assay relative to control; type: functional, cell-based; details: A549, 24 h
MCF7 [4] = experiment: Induction of apoptosis in human MCF7 cells at 10 uM measured after 6 hrs by Annexin V/Propidium iodide staining based confocal microscopy; type: functional, cell-based
L132 = experiment: Cytotoxicity against human L-132 cells assessed as reduction in cell viability at 10 uM measured after 24 hrs by MTT assay relative to control; type: cell-based; details: L132, 24 h
HepG2 = experiment: Cytotoxicity against human HepG2 cells assessed as reduction in cell viability at 10 uM measured after 24 hrs by MTT assay relative to control; type: functional, cell-based; details: HepG2, 24 h
A549 [5] = experiment: Induction of apoptosis in human A549 cells at 10 uM measured after 6 hrs by Annexin V/Propidium iodide staining based confocal microscopy; type: functional, cell-based
MCF7 [6] = experiment: Cytotoxicity against human MCF-7 cells assessed as reduction in cell viability at 10 uM measured after 24 hrs by MTT assay relative to control; type: functional, cell-based; details: MCF7, 24 h
[7] = Inhibition of IKK in human HeLa S3 cells using biotinylated IkaapaB-alpha by ELISA phosphorylation assay; type: cell-based
[8] = Inhibition of IKK (unknown origin); design: species or system Homo sapiens
[9] = Leishmania donovani, MHOM/80/IN/Dd8, THP-1, 48 h, read-out: IC50

Row | solubility [2] | Compound | IC50 (Leishmania donovani; [9]) [µM] | IC50 (Leishmania donovani) | further results
1 | – | COC(=O)c1cc2c([nH]c3ccc(NC(=O)c4ccco4)cc32)c(C)n1 | > 100 | – | –
2 | – | CCCCCCCCCCCCCCCCOP(=O)([O-])OCC[N+](C)(C)C [MILTEFOSINE] | 11.9 | – | IC50 (THP-1): 31.5 µM; selectivity ratio [1]: 2.64
3 | – | COCC(=O)Nc1ccc2[nH]c3c(C)nc(C(=O)OC)cc3c2c1 | > 100 | – | –
4 | – | COC(=O)c1cc2c([nH]c3ccc([N+](=O)[O-])cc32)c(C)n1 | > 100 | – | –
5 | Insoluble | COC(=O)c1cc2c([nH]c3ccc(NC(=O)c4ccc(C)cc4)cc32)c(C)n1 | – | Nd(Insoluble) | –
6 | Insoluble | COC(=O)c1cc2c([nH]c3ccc(NC(=O)c4cc(C(F)(F)F)cc(C(F)(F)F)c4)cc32)c(C)n1 | – | Nd(Insoluble) | IC50 (HeLa): 5.3 µM; IC50 (A549 [3]): 15.5 µM; Activity (MCF7 [4]): Active; IC50 (L132): 11.2 µM; IC50 (HepG2): 6.15 µM; Activity (A549 [5]): Active; IC50 (MCF7 [6]): 13.4 µM
7 | – | CCCCC(=O)Nc1ccc2[nH]c3c(C)nc(C(=O)OC)cc3c2c1 | > 100 | – | –
8 | – | Clc1cc2c([nH]c3cnccc32)c(Cl)c1OCC1CC1 | – | – | IC50 [7]: 0.08 µM
9 | – | COC(=O)c1cc2c([nH]c3ccc(NC(=O)c4cc(OC)c(OC)c(OC)c4)cc32)c(C)n1 | 100 | – | –
10 | – | COC(=O)c1cc2c([nH]c3ccc(N)cc32)c(C)n1 | > 100 | – | –
11 | – | COC(=O)c1cc2c([nH]c3ccc(NC(=O)c4ccccc4C(F)(F)F)cc32)c(C)n1 | > 100 | – | –
12 | Insoluble | COC(=O)c1cc2c([nH]c3ccc(NC(=O)COc4ccccc4)cc32)c(C)n1 | – | Nd(Insoluble) | –
13 | – | COC(=O)c1cc2c([nH]c3ccc(NC(=O)C4CCCCC4)cc32)c(C)n1 | 23.5 | – | IC50 (THP-1): 77 µM; selectivity ratio [1]: 3.27
14 | – | COC(=O)c1cc2c([nH]c3ccccc32)c(C)n1 | 9 | – | IC50 (THP-1): > 100 µM; IC50 (HeLa): 35.6 µM; selectivity ratio [1]: > 11.1; IC50 (A549 [3]): 37.8 µM; IC50 (L132): 39.3 µM; IC50 (HepG2): 39.6 µM; IC50 (MCF7 [6]): 45 µM
15 | – | COC(=O)c1cc2c([nH]c3ccc(NC(=O)c4ccc(C(C)(C)C)cc4)cc32)c(C)n1 | 68 | – | IC50 (THP-1): 32 µM; IC50 (HeLa): 3.59 µM; selectivity ratio [1]: 0.47; IC50 (A549 [3]): 4.72 µM; Activity (MCF7 [4]): Active; IC50 (L132): 3.26 µM; IC50 (HepG2): 3.65 µM; Activity (A549 [5]): Active; IC50 (MCF7 [6]): 4.17 µM
16 | Insoluble | CCCCCCCCCCCC(=O)Nc1ccc2[nH]c3c(C)nc(C(=O)OC)cc3c2c1 | – | Nd(Insoluble) | –
17 | – | COC(=O)c1cc2c([nH]c3ccc(NC(C)=O)cc32)c(C)n1 | > 100 | – | –
18 | Insoluble | COC(=O)c1cc2c([nH]c3ccc(NC(=O)c4ccc5ccccc5c4)cc32)c(C)n1 | – | Nd(Insoluble) | –
19 | Insoluble | COC(=O)c1cc2c([nH]c3ccc(NC(=O)c4ccc(Br)cc4)cc32)c(C)n1 | – | Nd(Insoluble) | –
20 | – | COC(=O)c1cc2c([nH]c3ccc(NC(=O)c4ccccc4)cc32)c(C)n1 | > 100 | – | –
21 | Insoluble | COC(=O)c1cc2c([nH]c3ccc(NC(=O)c4ccc(C(F)(F)F)cc4)cc32)c(C)n1 | – | Nd(Insoluble) | –
22 | Insoluble | COC(=O)c1cc2c([nH]c3ccc(NC(=O)c4ccc(OC)cc4)cc32)c(C)n1 | – | Nd(Insoluble) | –
23 | Insoluble | COC(=O)c1cc2c([nH]c3ccc(NC(=O)/C=C/c4ccccc4)cc32)c(C)n1 | – | Nd(Insoluble) | –
24 | – | CC(=O)O[C@@]12CO[C@@H]1C[C@H](O)[C@@]1(C)C(=O)[C@H](O)C3=C(C)[C@@H](OC(=O)[C@H](O)[C@@H](NC(=O)OC(C)(C)C)c4ccccc4)C[C@@](O)([C@@H](OC(=O)c4ccccc4)[C@H]21)C3(C)C [DOCETAXEL ANHYDROUS] | – | – | IC50 (HeLa): 3.23 µM; IC50 (A549 [3]): 3.41 µM; IC50 (L132): 1.68 µM; IC50 (HepG2): 2.86 µM; IC50 (MCF7 [6]): 3.6 µM
25 | – | COC(=O)c1cc2c([nH]c3ccc(NC(=O)c4cccs4)cc32)c(C)n1 | > 100 | – | –
26 | – | COC(=O)c1cc2c([nH]c3ccc(NC(=O)c4cc(C)oc4C)cc32)c(C)n1 | > 100 | – | –
27 | Insoluble | COC(=O)c1cc2c([nH]c3ccc(NC(=O)Oc4ccc([N+](=O)[O-])cc4)cc32)c(C)n1 | – | Nd(Insoluble) | –
28 | – | COc1ccc2[nH]c3cnccc3c2c1Br | – | – | IC50 [8]: 1 µM
